Data from patent US20240197666A1, “DITERPENOID COMPOUNDS THAT ACT ON PROTEIN KINASE C (PKC)” (K-Gen Therapeutics, Inc., priority 2021, published 2024).
Like-named read-outs stand apart in the source and are kept apart here.

Tests used:
[1] = system: A549 cell line; assay: Proliferation of A549 (CellTiter Glo); assay type: cell-based; details: read-out: IC50 μM (A549 Cell Line)
Procedure: The diterpenoid compounds were tested in A549, a non-small cell lung cancer cell line harboring a K-Ras activating mutation. Briefly, A549 cells at a density of 1,000 cells/well were seeded in 96-well plates and incubated at 37° C. for 24 hours. A series of different concentrations of compound stocks (500×) were prepared by 3-fold serial dilution in DMSO. These compounds were further diluted in culture media and then added to cells so that the final DMSO concentration was not exceeding 0.25%. After 96 hours of incubation, 50 μL of CellTiter Glo reagent (Promega) was added to each well and luminescence was measured after 10 minutes using EnVision (PerkinElmer). Luminescence from cells treated with DMSO alone was set as Max and % of inhibition was calculated as follows: Inhibition %=(Max-Sample value)/Max×100. Data was analyzed using XL-fit software (ID Business Solutions Ltd.) and IC50, relative IC50, and % of top inhibition was calculated. Some of the compounds in this disclosure were very potent in blocking proliferation of A549 lung cancer cells at low nM range. In addition, potency of inhibiting A549 proliferation correlated well with its binding affinity to PKCs for this series of compounds. In other words, higher affinity binders had stronger inhibitory effects on A549 proliferation. This further support the notion that activation, rather than inhibition, of certain PKC isoforms is required to block proliferation of cancer cells, some of which may harbor K-Ras mutations. This is in sharp contrast to previous literature and common belief that inhibition of PKC is necessary to block cancer cell growth (Kang, 2014, New Journal of Science, 2014:1-36). Data presented here is in agreement with recent findings that many loss-of-function but not gain-of-function mutations of PKC isoforms have been identified in many human cancers (Antal et al., 2015, Cell, 160:489-502).

[2] = system: NFκB-driven transcription in HeLa-NFκB luciferase reporter cell line; assay: NFκB luciferase reporter assay; details: PKC inhibitor added at the same time as the PKC activator compounds
[3] = system: human PBMC cells; assay: Cytokine/chemokine gene expression in human PBMC (TaqMan); assay type: cell-based; details: 4 h, 1 μM;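 on Gene Relative Expression CCL2: 2^-ΔΔCt fold change vs DMSO control normalized to 18S and GAPDH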;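 on Gene Relative Expression GM-CSF: 2^-ΔΔCt fold change vs DMSO control normalized to 18S and GAPDH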;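 on Gene Relative Expression IFN-α: 2^-ΔΔCt fold change vs DMSO control normalized to 18S and GAPDH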;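 on Gene Relative Expression IFNγ: 2^-ΔΔCt fold change vs DMSO control normalized to 18S and GAPDH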
Procedure: Each treatment condition was performed in duplicates.

[4] = Homo sapiens, A549, 96 hours, CellTiter Glo

Structure (SMILES): CSCC[C@H](N)C(=O)O[C@@]12C[C@@H](C)[C@@]3(O)[C@@H](C=C(CO)C[C@]4(O)C(=O)C(C)=C[C@@H]34)[C@@H]1C2(C)C
- IC50 ([1]; Homo sapiens, A549, 96 h): 5 to 10 µM

Structure (SMILES): CC1=C[C@H]2[C@@]3(O)[C@H](C)C[C@]4(OC(=O)[C@@H](N)CCCCCCc5ccccc5)[C@H]([C@@H]3C=C(COC(=O)[C@@H](N)C(C)C)C[C@]2(O)C1=O)C4(C)C
- IC50 [1, 4]: 0.01 to 0.03 µM

Structure (SMILES): CCCCCCCCCCCCCCCCCCC(CC(=O)O[C@@]12C[C@@H](C)[C@@]3(O)[C@@H](C=C(CO)C[C@]4(O)C(=O)C(C)=C[C@@H]34)[C@@H]1C2(C)C)C(=O)O (some centres unmarked)
- IC50 ([1]; Homo sapiens, A549, 96 h): 5 to 10 µM

Structure (SMILES): CC1=C[C@H]2[C@@]3(O)[C@H](C)C[C@]4(OC(=O)C(Cc5ccccc5)C(=O)O)[C@H]([C@@H]3C=C(CO)C[C@]2(O)C1=O)C4(C)C (some centres unmarked)
- IC50 ([1]; Homo sapiens, A549, 96 h): 1 to 2 µM

Structure (SMILES): CC1=C[C@H]2[C@@]3(O)[C@H](C)C[C@]4(OC(=O)[C@H](O)Cc5ccccc5)[C@H]([C@@H]3C=C(CO)C[C@]2(O)C1=O)C4(C)C
- IC50 ([1]; Homo sapiens, A549, 96 h): 2 to 5 µM

Structure (SMILES): CC1=C[C@H]2[C@@]3(O)[C@H](C)C[C@]4(OC(=O)C[C@@H](N)c5ccccc5)[C@H]([C@@H]3C=C(CO)C[C@]2(O)C1=O)C4(C)C
- IC50 ([1]; Homo sapiens, A549, 96 h): 2 to 5 µM

Structure (SMILES): CC1=C[C@H]2[C@@]3(O)[C@H](C)C[C@]4(OC(=O)[C@H](CC5CCCCC5)N(C)C)[C@H]([C@@H]3C=C(CO)C[C@]2(O)C1=O)C4(C)C
- IC50 ([1]; Homo sapiens, A549, 96 h): 0.6 to 1 µM

Structure (SMILES): CC1=C[C@H]2[C@@]3(O)[C@H](C)C[C@]4(OC(=O)[C@H](N)C56CC(F)(C5)C6)[C@H]([C@@H]3C=C(CO)C[C@]2(O)C1=O)C4(C)C
- IC50 ([1]; 96 hours, CellTiter Glo): 10 to 30 µM

Structure (SMILES): CC1=C[C@H]2[C@@]3(O)[C@H](C)C[C@]4(OC(=O)[C@@H](N)C56CC(F)(C5)C6)[C@H]([C@@H]3C=C(CO)C[C@]2(O)C1=O)C4(C)C
- IC50 ([1]; 96 hours, CellTiter Glo): 10 to 30 µM

Structure (SMILES): CC1=C[C@H]2[C@@]3(O)[C@H](C)C[C@]4(OC(=O)[C@@H](N)C56CC(C(F)(F)F)(C5)C6)[C@H]([C@@H]3C=C(CO)C[C@]2(O)C1=O)C4(C)C
- IC50 [1, 4]: 0.06 to 0.1 µM

Structure (SMILES): CC1=C[C@H]2[C@@]3(O)[C@H](C)C[C@]4(O)[C@H]([C@@H]3C=C(CO)C[C@]2(O)C1=O)C4(C)C
- IC50 ([1]; Homo sapiens, A549, 96 h): > 30 µM

Structure (SMILES): Cn1c2ccccc2c2c3c(c4c5ccccc5n(CCC#N)c4c21)CNC3=O [Compound G66976, G66976, reference compound]
- block of NFκB activation induced by PKC activator compounds [2]: unable to block

Structure (SMILES): COc1ccc2c(c1)c(C1=C(c3c[nH]c4ccccc34)C(=O)NC1=O)cn2CCCN(C)C [Gö6983, reference compound]
- block of NFκB activation induced by PKC activator compounds [2]: completely block

Structure (SMILES): CCOCc1nc2c(N)nc3ccccc3c2n1CC(C)(C)O [Resiquimod, reference compound]
- Gene Relative Expression CCL2 [3]: 3.73
- Gene Relative Expression GM-CSF [3]: 8.79
- Gene Relative Expression IFN-α [3]: 1.47
- Gene Relative Expression IFNγ [3]: 1.28
- Gene Relative Expression IL-1β [3]: 101.63
- Gene Relative Expression IL-2 [3]: 1.21
- Gene Relative Expression IL-6 [3]: 487.14
- Gene Relative Expression IL-8 [3]: 9.87
- Gene Relative Expression IL-10 [3]: 5.65
- Gene Relative Expression IL-12p40 [3]: 786.39
- Gene Relative Expression IL-12p70 [3]: 2.48
- Gene Relative Expression IL-13 [3]: 3.52
- Gene Relative Expression IL-18 [3]: 1.33
- Gene Relative Expression ISG15 [3]: 14.75
- Gene Relative Expression MIP1a (CCL3) [3]: 47.71
- Gene Relative Expression MX1 [3]: 17.00
- Gene Relative Expression OAS1 [3]: 12.66
- Gene Relative Expression TNF-α [3]: 7.38

Structure (SMILES): CN1CCN(c2nc(C3=C(c4c[nH]c5ccccc45)C(=O)NC3=O)c3ccccc3n2)CC1 [Sotrastaurin, reference compound]
- block of NFκB activation induced by PKC activator compounds [2]: completely block
